Assay [1] concerns the target T1, human amylin 3(a) receptor (human calcitonin receptor + RAMP-3) in BHK570 cells (Homo sapiens, UniProt O60896+P30988).
T1 construct: expressed in transfected cells
Nature of the assay: ASSAY (II)a functional assay, human amylin receptor (CRE luciferase). The assay is classed as cell-based. Particulars: for EC50: human amylin receptor functional potency, assay (II), read-out: hAmylin-R funct. EC50. The method, boiled down: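 BHK CRE-luc cells, calcitonin (a) receptor ± RAMP-3 (amylin 3(a)); overnight seeding, 37° C/5% CO2. 3 h ligand exposure, DMEM/10% FBS/10 mM Hepes pH 7.4. LucLite 30 min RT; luminescence (SPC).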

Assay [2] concerns the target T2, human calcitonin (a) receptor in BHK570 cells (Homo sapiens, UniProt P30988).
T2 construct: expressed in transfected cells
T2 sequence (P30988 25-474): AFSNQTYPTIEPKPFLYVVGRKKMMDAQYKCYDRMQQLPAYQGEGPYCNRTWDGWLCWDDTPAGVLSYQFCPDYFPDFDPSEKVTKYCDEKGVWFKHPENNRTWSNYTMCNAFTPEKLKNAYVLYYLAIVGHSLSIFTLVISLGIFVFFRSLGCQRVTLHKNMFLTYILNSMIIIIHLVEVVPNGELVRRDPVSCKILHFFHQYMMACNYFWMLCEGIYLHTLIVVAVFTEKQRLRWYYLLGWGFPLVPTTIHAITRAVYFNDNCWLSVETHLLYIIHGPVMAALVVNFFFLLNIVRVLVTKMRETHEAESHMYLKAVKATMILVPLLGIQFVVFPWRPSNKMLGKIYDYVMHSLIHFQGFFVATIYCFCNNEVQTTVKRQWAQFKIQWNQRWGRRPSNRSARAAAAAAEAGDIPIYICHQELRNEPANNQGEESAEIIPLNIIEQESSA
In words: ASSAY (II)a functional assay, human calcitonin receptor (CRE luciferase). Type of assay: cell-based. Particulars: read-out: hCTR funct. EC50. An excerpt: 1. Luciferase Assay Outline
Activation of calcitonin and amylin (coexpression of calcitonin receptor and receptor activity modifying proteins (RAMP)) receptors lead to increased intracellular concentrations of cAMP. Consequently, transcription is activated by promoters containing multiple copies of the cAMP response element (CRE). It is thus possible to measure amylin activity by the use of a CRE luciferase reporter gene introduced into BHK cells also expressing calcitonin or amylin receptors.
2. Construction of Calcitonin (a)- and Amylin 3(a)-Receptor/CRE-Luc Cell Line.
The cell line was further transfected with RAMP-3, using standard methods. This turns the calcitonin receptor into an amylin 3(a) receptor. Methotrexate, Neomycin, and Hygromycin are selection markers for luciferase, the calcitonin receptor, and RAMP-3, respectively.
To perform activity assays, BHK calcitonin (a) receptor- or amylin 3(a)-receptor/CRE-luc cells were seeded in white 96 well culture plates at a density of about 20.000 cells/well. […] After incubation overnight at 37° C. and 5% CO2, the growth medium was replaced by 50 μl/well assay medium (DMEM (without phenol red), Glutamax™, 10% FBS, and 10 mM Hepes, pH 7.4). Further, 50 μl/well of standard or sample in assay buffer were added. After 3 hours incubation at 37° C. and 5% CO2, the assay medium with standard or sample were removed and replaced by 100 μl/well PBS. Further, 100 μl/well LucLite™ was added. The plates were sealed and incubated at room temperature for 30 minutes. Finally, luminescence was measured on a TopCounter (Packard) in SPC (single photon counting) mode.

In assay [3] the target is T3, human amylin receptor (membranes from Amylin 3(a)/CRE-luc cells) (Homo sapiens, UniProt O60896+P30988).
T3 construct: expressed in transfected cells
T3 sequence (P30988 25-474): T2 sequence (P30988 25-474)
T3 sequence (O60896 24-148 partner): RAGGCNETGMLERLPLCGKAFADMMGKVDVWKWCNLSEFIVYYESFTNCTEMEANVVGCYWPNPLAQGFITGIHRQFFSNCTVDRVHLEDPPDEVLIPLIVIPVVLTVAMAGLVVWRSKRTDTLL
In words: ASSAY (V) binding to the human amylin receptor (SPA, 125I-rat amylin).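 For all read-outs here: competition binding of cell membranes (35 ng/µL) mixed with SPA beads in 384-well plates at 40 µL total volume, read by scintillation counting.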 Particulars: for IC50: Table 4, read-out: hAmylin-R bind IC50.

Assay [4] has as its target T4, rat amylin receptor (rat calcitonin receptor + rat RAMP 3) (Rattus norvegicus, UniProt P32214+Q9JJ73).
T4 construct: expressed in transfected cells; host or cells: BHK tk'ts 13 (transient, FuGENE 6), membranes
T4 sequence (P32214 25-479 isoform P32214-2 limits assumed): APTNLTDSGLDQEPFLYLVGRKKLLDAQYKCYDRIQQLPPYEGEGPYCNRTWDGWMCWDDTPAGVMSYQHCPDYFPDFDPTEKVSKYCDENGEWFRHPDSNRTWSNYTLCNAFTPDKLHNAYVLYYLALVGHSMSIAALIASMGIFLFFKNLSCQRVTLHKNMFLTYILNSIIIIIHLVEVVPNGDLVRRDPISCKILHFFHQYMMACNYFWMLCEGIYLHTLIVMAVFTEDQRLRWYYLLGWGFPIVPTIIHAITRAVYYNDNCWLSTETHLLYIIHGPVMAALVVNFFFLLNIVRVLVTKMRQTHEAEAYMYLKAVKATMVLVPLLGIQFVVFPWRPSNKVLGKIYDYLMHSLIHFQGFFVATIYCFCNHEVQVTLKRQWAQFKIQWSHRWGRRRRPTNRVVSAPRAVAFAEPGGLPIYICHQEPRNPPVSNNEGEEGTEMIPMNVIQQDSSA
T4 sequence (Q9JJ73 23-147 partner): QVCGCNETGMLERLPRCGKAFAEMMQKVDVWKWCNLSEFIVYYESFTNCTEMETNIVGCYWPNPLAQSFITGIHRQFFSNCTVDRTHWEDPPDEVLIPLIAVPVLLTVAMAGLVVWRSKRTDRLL
Nature of the assay: ASSAY (VI) binding to the rat amylin receptor. Particulars: for IC50: binding to rat amylin receptor, read-out: rAmylin-R bind IC50. The gist of the method: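 This assay measured binding to the rat amylin receptor. BHK tk′ts 13 cells were transiently transfected with the rat calcitonin receptor using FuGENE® 6 (Roche), following the manufacturer's recommendations. About 48 hours after transfection, the cells were harvested and membranes were prepared from them for the binding determination.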

Assay [5] has as its target T5, human calcitonin receptor (Homo sapiens, UniProt P30988).
T5 construct: expressed in transfected cells
T5 sequence (P30988 25-474): T2 sequence (P30988 25-474)
Nature of the assay: ASSAY (VII) binding to the human calcitonin receptor (SPA, 125I-Calcitonin).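 Note: cell membranes (35 ng/µL) combined with SPA beads in 40 µL of pH 7.4 Hepes buffer, 384-well format, signal counted on a TopCounter instrument.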 Particulars: read-out: hCTR bind IC50.

The next assay deals with T6, rat calcitonin receptor (Rattus norvegicus, UniProt P32214).
T6 construct: expressed in transfected cells; host or cells: BHK tk'ts 13 (transient, FuGENE 6), membranes
T6 sequence (P32214 25-479 isoform P32214-2 limits assumed): T4 sequence (P32214 25-479 isoform P32214-2 limits assumed)
In words: ASSAY (VIII) binding to the rat calcitonin receptor. The following applies: Table 7, read-out: rCTR bind IC50. The method, boiled down:
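Membranes were prepared from BHK tk′ts 13 cells transiently transfected with rat calcitonin receptor. Cells were grown in DMEM with 10% FBS and harvested approximately 48 hours after transfection.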

[6] abbreviates: hCTR funct. EC50 over hAmylin-R funct. EC50.
The mark [7] stands for this setting: human functional selectivity: hCTR funct. EC50 / hAmylin-R funct. EC50.
Setting [8] is: Table 5, selectivity, hCTR bind IC50 / hAmylin-R bind IC50.
The mark [9] stands for this setting: Table 5a, selectivity, hCTR bind IC50 / hAmylin-R bind IC50.
Setting [10] is: Table 5b, selectivity, hCTR bind IC50 / hAmylin-R bind IC50.
The mark [11] stands for this setting: Table 7, human binding selectivity, included for comparison.
[12] abbreviates: Table 7a (preferred compounds), human binding selectivity, included for comparison.
[13] abbreviates: ratio of human calcitonin receptor binding IC50 to human amylin receptor binding IC50.
Setting [14] is: Table 7, rat binding selectivity, rCTR IC50 / rAmylin-R IC50.
Where [15] appears, read: Table 7a (preferred compounds), rat binding selectivity, rCTR IC50 / rAmylin-R IC50.
[16] abbreviates: ratio of rCTR bind IC50 to rAmylin-R bind IC50.

The record followed here is patent US9023789B2, “Amylin analogs and pharmaceutical compositions thereof” (Novo Nordisk A/S, priority 2012, dated 2015).

A word on the EC50: it is the concentration at which the effect is half-maximal. The IC50 is the point on the concentration scale where inhibition reaches its midpoint.

Numbered stars: 1 amine (or outer) side, 2 acyl side, 3 side chain; on linkers, the order of the positions; unused ones are H or OH. Bridge positions count the residues as written; N and C are the ends. Peptide text beside a SMILES is read from it. * marks the point of attachment. C20 diacid = O=C(O)CCCCCCCCCCCCCCCCCCC(=O)*; γGlu = O=C(O)[C@H](CCC(=O)[*:2])N[*:1]

With `CC[C@H](C)[C@H](NC(=O)[C@@H]1CCCN1C(=O)CNC(=O)[C@H](Cc1ccccc1)NC(=O)[C@H](CC(N)=O)NC(=O)[C@@H]1CCCN1C(=O)[C@H](CO)NC(=O)[C@H](CO)NC(=O)[C@H](Cc1c[nH]cn1)NC(=O)[C@H](CCCNC(=N)N)NC(=O)[C@H](CC(C)C)NC(=O)[C@H](Cc1ccccc1)NC(=O)[C@H](CCC(=O)O)NC(=O)[C@H](C)NC(=O)[C@H](CC(C)C)NC(=O)[C@H](CCCNC(=N)N)NC(=O)[C@H](CCC(N)=O)NC(=O)[C@@H](NC(=O)[C@H](C)NC(=O)[C@@H]1CSSC[C@H](NC(=O)[C@H](CCCCN)NC(=O)CC[C@H](NC(=O)CCCCCCCCCCCCCCCCCCC(=O)O)C(=O)O)C(=O)N[C@@H](CC(N)=O)C(=O)N[C@@H]([C@@H](C)O)C(=O)N[C@@H](C)C(=O)N[C@@H]([C@@H](C)O)C(=O)N1)[C@@H](C)O)C(=O)N[C@@H](CC(C)C)C(=O)N1CCC[C@H]1C(=O)N1CCC[C@H]1C(=O)N[C@H](C(=O)N[C@@H](CC(N)=O)C(=O)N[C@H](C(=O)NCC(=O)N[C@@H](CO)C(=O)N[C@@H](CC(N)=O)C(=O)N[C@H](C(=O)N[C@@H](Cc1ccc(O)cc1)C(N)=O)[C@@H](C)O)C(C)C)[C@@H](C)O` [Example 6] ({C20 diacid-γGlu}-KCNTATCATQRLAEFLRHSSPNFGPILPPTNVGSNTY-NH2; disulfide 2-7), the “Ratio hCT/hAmylin funct.” value in assay [1] (setting [6]) and in assay [1] (setting [7]) was 5.7 in each case. The EC50 in assay [1] worked out at 0.128 nM; in assay [2] it was 0.729 nM. Moreover, the IC50 in assay [3] amounted to 0.996 nM; in assay [4] (Table 7), 2.37 nM; in assay [5], 19.9 nM; on rat calcitonin receptor, 51.6 nM. For the same molecule, the “Ratio hCT/hAmylin binding” value is 20.0 in assay [3] (setting [8]); 20.0 in assay [3] (setting [9]); 20.0 in assay [3] (setting [10]); 20.0 in assay [3] (Table 5c, selectivity, hCTR bind IC50 / hAmylin-R bind IC50); 20.0 in assay [3] (setting [11]); 20.0 in assay [3] (setting [12]). In addition, the “Ratio hCT/hAmylin binding” value in assay [3] (setting [13]) is listed as 20.0. In addition, the “Ratio rCT/rAmylin binding” value in assay [4] (setting [14]), in assay [4] (setting [15]) and in assay [4] (setting [16]) was 21.7 each time.
Turning to `CC(C)C[C@H](NC(=O)[C@H](CCCNC(=N)N)NC(=O)[C@H](CCC(N)=O)NC(=O)[C@@H](NC(=O)[C@H](C)NC(=O)[C@@H]1CSSC[C@H](NC(=O)[C@H](CCCCN)NC(=O)CC[C@H](NC(=O)CCCCCCCCCCCCCCCCCCC(=O)O)C(=O)O)C(=O)N[C@@H](CC(N)=O)C(=O)N[C@@H]([C@@H](C)O)C(=O)N[C@@H](C)C(=O)N[C@@H]([C@@H](C)O)C(=O)N1)[C@@H](C)O)C(=O)N[C@@H](C)C(=O)N[C@@H](CCC(=O)O)C(=O)N[C@@H](Cc1ccccc1)C(=O)N[C@@H](CC(C)C)C(=O)N[C@@H](CCCNC(=N)N)C(=O)N[C@@H](Cc1c[nH]cn1)C(=O)N[C@@H](CO)C(=O)N[C@@H](CO)C(=O)N1CCC[C@H]1C(=O)N[C@@H](CC(N)=O)C(=O)N[C@@H](Cc1ccccc1)C(=O)NCC(=O)N[C@@H](C)C(=O)N1CCC[C@H]1C(=O)N[C@@H](CC(C)C)C(=O)N[C@@H](CO)C(=O)N[C@@H](CO)C(=O)N[C@H](C(=O)N[C@@H](CC(N)=O)C(=O)N[C@H](C(=O)NCC(=O)N[C@@H](CO)C(=O)N[C@@H](CC(N)=O)C(=O)N[C@H](C(=O)N[C@@H](Cc1ccc(O)cc1)C(N)=O)[C@@H](C)O)C(C)C)[C@@H](C)O` [Example 7] ({C20 diacid-γGlu}-KCNTATCATQRLAEFLRHSSPNFGAPLSSTNVGSNTY-NH2; disulfide 2-7), the “Ratio hCT/hAmylin funct.” value in assay [1] (setting [6]) and in assay [1] (setting [7]) was 4.5 in each case. For the same molecule, the EC50 in assay [1] was 0.255 nM; in assay [2], 1.16 nM. Moreover, the IC50 in assay [3] was 0.674 nM; in assay [4] (Table 7) it was 1.12 nM; in assay [5], 11.1 nM; at rat calcitonin receptor, 47.2 nM. Besides, the “Ratio hCT/hAmylin binding” value in assay [3] (setting [8]), in assay [3] (setting [9]), in assay [3] (setting [10]), in assay [3] (setting [11]), in assay [3] (setting [12]) and in assay [3] (setting [13]) was 16.5 in each case. For the same molecule, the “Ratio rCT/rAmylin binding” value in assay [4] (setting [14]), in assay [4] (setting [15]) and in assay [4] (setting [16]) was 42.0 each time.
